Earlier results on two compounds are cited in patent publication US20170128486A1, “CONSUMABLE COMPOSITIONS AND USES THEREOF FOR ALLEVIATING UNDESIRABLE PHYSIOLOGICAL EFFECTS SYSTEMS” (ImmunoL0G1C R&D Inc., priority 2015, published 2017).

As usually defined, the solubility is how much of the substance goes into solution per volume.

Converted amounts (≈) assume the structure as drawn.

As for `N[C@@H](Cc1c[nH]c2ccccc12)C(=O)O` [L-tryptophan], the “solubility in water” value is “poorly soluble in water”.

Take `N[C@@H](Cc1c[nH]c2ccc(O)cc12)C(=O)O` [5-hydroxytryptophan]: for the setting “in water”, the solubility is 10000 µg/mL (≈ 45.4 mM).
